13 compounds from ChEMBL document CHEMBL4390668, “Discovery and Structural Optimization of Acridones as Broad-Spectrum Antimalarials” (J Med Chem, 2019) can be followed below.

Active and inactive are the calls of the source. The rule behind the calls is not given here.

Series [1] relates to Plasmodium falciparum. The series can be described thus: Antimalarial activity against drug-resistant Plasmodium falciparum Dd2 harboring M133I/A138T double mutant infected in human erythrocytes after 72 hrs by SYBR green 1-based fluorescence assay. The series is classed as functional, organism-based. As to conditions: Dd2, 72 h.
Series [2] deals with Plasmodium falciparum. The series can be described thus: Inhibition of Plasmodium falciparum cytochrome b-c1.
Series [3] has as its system Plasmodium falciparum. In words: Antimalarial activity against drug-resistant Plasmodium falciparum Dd2 harboring M133I mutant infected in human erythrocytes after 72 hrs by SYBR green 1-based fluorescence assay. The series is classed as functional, organism-based. Particulars: Dd2, 72 h.
The test system of series [4] is Plasmodium falciparum. In words: Antimalarial activity against drug-resistant Plasmodium falciparum Dd2 harboring V259L mutant infected in human erythrocytes after 72 hrs by SYBR green 1-based fluorescence assay. The class given is functional, organism-based. As to conditions: Dd2, 72 h.
Series [5] relates to Plasmodium falciparum. The series can be described thus: Antimalarial activity against multidrug-resistant Plasmodium falciparum Dd2 infected in human erythrocytes by SYBR green 1-based fluorescence assay. The series is classed as functional, organism-based.
Series [6] has as its system Plasmodium falciparum. In words: Antimalarial activity against drug-resistant Plasmodium falciparum 3D7 harboring A82T/V259L double mutant infected in human erythrocytes after 72 hrs by SYBR green 1-based fluorescence assay. The series is classed as functional, organism-based. As to conditions: 3D7, 72 h.
Series [7] concerns Plasmodium falciparum. In words: Antimalarial activity against Plasmodium falciparum 3D7 infected in human erythrocytes after 72 hrs by SYBR green 1-based fluorescence assay. The series is classed as functional, organism-based. Particulars: 3D7, 72 h.
Series [8] in a line: Selectivity index, ratio of IC50 for human HepG2 cells to IC50 for chloroquine-sensitive Plasmodium falciparum D6 infected in human erythrocytes. The class given is toxicity, cell-based. Particulars: read-out: Ratio IC50.
Series [9] can be described thus: Mutagenicity in Salmonella typhimurium TA100 assessed as increase in revertant colonies up to 10 uM in presence of S9 fraction by Ames test. As to conditions: salmonella enterica subsp. enterica serovar typhimurium. The class given is toxicity, subcellular.
The next series addresses hERG (KCNH2) (Homo sapiens, UniProt Q12809). The series can be described thus: Inhibition of human ERG expressed in CHOK1 cells at 10 uM by automated patch clamp method relative to control. The series is classed as cell-based. As to conditions: CHO-K1 cells that express hERG.
The next series has as its system Plasmodium yoelii. The series can be described thus: Antimalarial activity against blood stage Plasmodium yoelii MR4 MRA-428 infected in CF1 mouse assessed as suppression of parasitemia administered once daily via oral gavage for 4 days starting from 24 hrs post-infection and measured post-last dose by Giemsa-staining based microscopic analysis. The series is classed as functional.

The test system of series [10] is Plasmodium falciparum. The series can be described thus: Antimalarial activity against multidrug-resistant Plasmodium falciparum 7G8 infected in human erythrocytes by SYBR green 1-based fluorescence assay. The series is classed as functional, organism-based.
The nature of series [11]: Mutagenicity in Salmonella typhimurium TA98 assessed as increase in revertant colonies up to 10 uM in presence of S9 fraction by Ames test. Particulars: salmonella enterica subsp. enterica serovar typhimurium. The class given is toxicity, subcellular.
In series [12] the test system is Plasmodium falciparum. In words: Antimalarial activity against chloroquine-sensitive Plasmodium falciparum D6 infected in human erythrocytes by SYBR green 1-based fluorescence assay. The class given is functional, organism-based.
In series [13] the test system is Plasmodium falciparum. The series can be described thus: Antimalarial activity against atovaquone-resistant Plasmodium falciparum Tm90-C2B infected in human erythrocytes by SYBR green 1-based fluorescence assay. The class given is functional, organism-based.
Series [14] in a line: Mutagenicity in Salmonella typhimurium TA100 assessed as increase in revertant colonies up to 10 uM in absence of S9 fraction by Ames test. The series is classed as toxicity. Particulars: salmonella enterica subsp. enterica serovar typhimurium.
A short description of series [15]: Mutagenicity in Salmonella typhimurium TA98 assessed as increase in revertant colonies up to 10 uM in absence of S9 fraction by Ames test. The series is classed as toxicity. Particulars: salmonella enterica subsp. enterica serovar typhimurium.
A further series has as its system HepG2. In words: Cytotoxicity against human HepG2 cells measured after 24 to 36 hrs by resazurin dye based fluorescence assay. The series is classed as cell-based.
The next series has as its system Plasmodium berghei. The series can be described thus: Antimalarial activity against luciferase-expressing Plasmodium berghei ANKA 676m1cl1 sporozoites infected in human HepG2A16 cells measured after 45 hrs by luciferase-luciferin based reporter assay. The class given is functional, organism-based. Particulars: ANKA 676m1cl1, HepG2A16, 45 h.
Series [16] in a line: Half life in human liver microsomes at 1 uM by LC-MS analysis. The series is classed as ADME, Microsome.
The nature of series [17]: Half life in mouse liver microsomes at 1 uM by LC-MS analysis. The series is classed as ADME, Microsome.

Chain of hERG (KCNH2) (Q12809 whole entry): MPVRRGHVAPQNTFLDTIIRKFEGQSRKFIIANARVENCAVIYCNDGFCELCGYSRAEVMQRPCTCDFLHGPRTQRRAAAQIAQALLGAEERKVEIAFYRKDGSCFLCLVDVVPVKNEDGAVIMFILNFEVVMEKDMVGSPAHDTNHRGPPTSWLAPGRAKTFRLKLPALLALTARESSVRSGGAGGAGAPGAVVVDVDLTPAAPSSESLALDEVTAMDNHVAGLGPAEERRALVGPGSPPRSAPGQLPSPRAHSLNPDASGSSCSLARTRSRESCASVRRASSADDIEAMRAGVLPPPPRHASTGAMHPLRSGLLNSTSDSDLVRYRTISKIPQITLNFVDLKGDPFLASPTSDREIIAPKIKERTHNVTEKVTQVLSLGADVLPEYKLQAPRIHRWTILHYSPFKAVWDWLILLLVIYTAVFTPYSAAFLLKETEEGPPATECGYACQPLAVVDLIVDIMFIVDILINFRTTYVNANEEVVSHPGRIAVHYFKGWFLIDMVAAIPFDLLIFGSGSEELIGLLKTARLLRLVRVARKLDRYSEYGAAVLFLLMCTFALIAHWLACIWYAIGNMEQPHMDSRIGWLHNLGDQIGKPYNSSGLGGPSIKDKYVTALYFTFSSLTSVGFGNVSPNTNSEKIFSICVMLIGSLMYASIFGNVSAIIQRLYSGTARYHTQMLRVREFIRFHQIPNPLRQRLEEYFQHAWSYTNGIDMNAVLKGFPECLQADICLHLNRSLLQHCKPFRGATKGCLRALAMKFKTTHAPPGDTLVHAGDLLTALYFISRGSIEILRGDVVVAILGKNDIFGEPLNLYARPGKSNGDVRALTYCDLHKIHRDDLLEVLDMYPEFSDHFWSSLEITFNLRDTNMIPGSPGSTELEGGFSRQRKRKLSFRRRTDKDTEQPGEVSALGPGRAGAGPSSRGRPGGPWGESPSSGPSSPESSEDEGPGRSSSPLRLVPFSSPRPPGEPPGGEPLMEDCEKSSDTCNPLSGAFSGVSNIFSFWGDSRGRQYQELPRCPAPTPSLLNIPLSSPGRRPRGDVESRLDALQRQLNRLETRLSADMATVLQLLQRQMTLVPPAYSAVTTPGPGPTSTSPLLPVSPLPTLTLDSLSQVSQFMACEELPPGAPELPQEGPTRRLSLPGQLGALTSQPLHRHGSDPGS

Consider `C=C[C@H]1CN2CC[C@H]1C[C@H]2[C@H](O)c1ccnc2ccc(OC)cc12` [QUININE], for which the IC50 in the series with Plasmodium falciparum [1] turned out to be 199 nM; in the series with Plasmodium falciparum [3] it was 197 nM; in the series on Plasmodium falciparum [4], 215 nM; in the series with Plasmodium falciparum [5] it was 254 nM. In addition, the inhibition result in the series on Plasmodium falciparum [2] was “inactive”.
As to `Clc1ccc2c(N3CCN(CCCN4CCN(c5ccnc6cc(Cl)ccc56)CC4)CC3)ccnc2c1` [PIPERAQUINE], the IC50 amounted to 7.4 nM with Plasmodium falciparum [1]; 5 nM with Plasmodium falciparum [6]; 10 nM in the series on Plasmodium falciparum [3]; 7.1 nM with Plasmodium falciparum [4]; 7.2 nM with Plasmodium falciparum [7]. Moreover, the inhibition result with Plasmodium falciparum [2] was “inactive”.
As for `O=C1C(O)=C([C@H]2CC[C@H](c3ccc(Cl)cc3)CC2)C(=O)c2ccccc21` [ATOVAQUONE], the inhibition entry in the series on Plasmodium falciparum [2] is “inactive”. The concentration for half-maximal inhibition (IC50) with Plasmodium falciparum [6] is 1.9 nM; in the series with Plasmodium falciparum [3], 6.9 nM; in the series with Plasmodium falciparum [4] it was 4.1 nM; in the series on Plasmodium falciparum [7], 0.5 nM.
For `CCCCCCOc1ccc2c(=O)c3c(F)cc(F)cc3[nH]c2c1`, the selectivity ratio in [8] is greater than 100000. Further, the Activity entry in series [9], in [11], in [14] and in series [15] was “Non-Toxic” in each case. Moreover, the inhibition at 10 µM on hERG (KCNH2) turned out to be 20%. In addition, the ED50 with Plasmodium yoelii was found to be 1.09 mg/kg.day. Further, the ED90 with Plasmodium yoelii is listed as 12.7 mg/kg.day. For the same compound, the IC50 in the series with Plasmodium falciparum [10] is 0.05 nM; with Plasmodium falciparum [12], 0.026 nM; with Plasmodium falciparum [13], 5.4 nM; in the series with Plasmodium falciparum [5] it was 0.041 nM; in the series on HepG2 it was greater than 100000 nM; in the series with Plasmodium berghei, 72 nM.
As to `CCN(CC)CCCOc1ccc2c(=O)c3c(Cl)cc(Cl)cc3[nH]c2c1`, the selectivity ratio in series [8] was found to be 6840. For the same compound, the results for the half-life at 1 µM in series [16] and in series [17] were 9 min and 16 min, respectively. Besides, the Activity entry in series [9], in series [11], in series [14] and in [15] was “Non-Toxic” throughout. Further, the inhibition at 10 µM at hERG (KCNH2) was determined as 59%. The ED50 with Plasmodium yoelii came out at 0.43 mg/kg.day. Besides, the ED90 in the series on Plasmodium yoelii is listed as 24.1 mg/kg.day. Further, the IC50 in the series with Plasmodium falciparum [10] came out at 114 nM; in the series with Plasmodium falciparum [12], 19 nM; in the series with Plasmodium falciparum [13], 228 nM; in the series on Plasmodium falciparum [5] it was 45 nM; in the series with HepG2 it was 130000 nM; in the series with Plasmodium berghei it was 138 nM.
Regarding `O[C@@H](c1cc(C(F)(F)F)nc2c(C(F)(F)F)cccc12)[C@H]1CCCCN1` [(S,R)-MEFLOQUINE], the IC50 in the series on Plasmodium falciparum [1] is 13 nM; with Plasmodium falciparum [3] it was 14 nM; in the series on Plasmodium falciparum [4], 23 nM; with Plasmodium falciparum [5] it was 18 nM. Besides, the inhibition entry in the series with Plasmodium falciparum [2] is “inactive”.
For `CCN(CC)CCOc1ccc2c(=O)c3c(F)cc(F)cc3[nH]c2c1`, in series [8], the selectivity ratio came out at 9950. Besides, the IC50 with Plasmodium falciparum [1] turned out to be 60 nM; in the series on Plasmodium falciparum [6], 1150 nM; in the series on Plasmodium falciparum [4], 525 nM; in the series on Plasmodium falciparum [10], 12 nM; with Plasmodium falciparum [7], 15 nM; in the series with Plasmodium falciparum [12], 7.8 nM. The results for the 50% inhibitory concentration (IC50) in the series on Plasmodium falciparum [13], with Plasmodium falciparum [5] and with HepG2 were 1980 nM, 16 to 20 nM and 77600 nM, respectively. In addition, the inhibition entry in the series on Plasmodium falciparum [2] is “inactive”. For the same compound, in the series with Plasmodium yoelii, the ED50 worked out at 1.62 mg/kg.day. Further, the ED90 in the series with Plasmodium yoelii is 9.91 mg/kg.day.
As to `CCCN(CCC)CCOc1ccc2c(=O)c3c(Cl)cc(Cl)cc3[nH]c2c1`, the half-life at 1 µM in series [16] and in series [17] was greater than 60 min each time. Further, the Activity result in series [9], in series [11], in series [14] and in series [15] was “Non-Toxic” each time. The compound further had an inhibition at 10 µM against hERG (KCNH2) of 38%. Further, the ED50 in the series on Plasmodium yoelii came out at 0.21 mg/kg.day. For the same compound, in the series on Plasmodium yoelii, the ED90 is 3.54 mg/kg.day. The IC50 in the series on Plasmodium falciparum [10] was 0.006 nM; in the series on Plasmodium falciparum [13], 153 nM; in the series with Plasmodium falciparum [5], 0.003 nM; in the series with Plasmodium berghei it was 3.7 nM.
Take `CCCCN(CCCC)CC(O)c1cc(Cl)cc2c1-c1ccc(Cl)cc1/C2=C/c1ccc(Cl)cc1` (configuration not stated) [LUMEFANTRINE]: the half-maximal inhibitory concentration (IC50) in the series with Plasmodium falciparum [1] came to 3.6 nM; in the series on Plasmodium falciparum [6], 4.5 nM; in the series on Plasmodium falciparum [3] it was 3.6 nM; in the series on Plasmodium falciparum [4], 6.5 nM; with Plasmodium falciparum [7], 3 nM; in the series on Plasmodium falciparum [5] it was 5.7 nM. Also, the inhibition result in the series with Plasmodium falciparum [2] is “inactive”.
Take `CCN(CC)CCOc1ccc2c(=O)c3c(Cl)cc(Cl)cc3[nH]c2c1`: the selectivity ratio in series [8] was determined as 1630. For the same compound, the IC50 with Plasmodium falciparum [1] amounted to 1080 nM; with Plasmodium falciparum [6], 612 nM; in the series on Plasmodium falciparum [4] it was 668 nM; in the series on Plasmodium falciparum [10], 21 nM; in the series on Plasmodium falciparum [7], 16 nM; with Plasmodium falciparum [12], 8.2 nM. The concentration for half-maximal inhibition (IC50) is 465 nM with Plasmodium falciparum [13], 22 to 31 nM in the series on Plasmodium falciparum [5] and 13400 nM in the series with HepG2. The inhibition entry in the series on Plasmodium falciparum [2] was “inactive”. Besides, the ED50 with Plasmodium yoelii was 3.09 mg/kg.day. Moreover, the ED90 in the series on Plasmodium yoelii was 50.2 mg/kg.day.
On to `O=c1c2ccc(OCCN(CCC(F)(F)F)CCC(F)(F)F)cc2[nH]c2cc(F)cc(F)c12`, for which the selectivity ratio in series [8] is greater than 100000. The half-life at 1 µM in series [16] came out at 20 min; in series [17] it was 33 min. In addition, the Activity result in series [9], in series [11], in series [14] and in [15] was “Non-Toxic” in each case. This compound also had an inhibition at 10 µM on hERG (KCNH2) of 17%. Further, the ED50 in the series on Plasmodium yoelii amounted to 0.66 mg/kg.day. In the series on Plasmodium yoelii, the ED90 stood at 2.53 mg/kg.day. The half-inhibitory concentration (IC50) in the series on Plasmodium falciparum [10] is 0.016 nM; in the series with Plasmodium falciparum [12], 0.002 nM; with Plasmodium falciparum [13], 2 nM; in the series on Plasmodium falciparum [5], 0.015 nM; in the series with HepG2, greater than 100000 nM; in the series with Plasmodium berghei it was 0.09 nM.
As to `CCN(CC)CCOc1ccc2[nH]c3cc(Cl)ccc3c(=O)c2c1`, the selectivity ratio in series [8] worked out at 272. The half-life at 1 µM in [16] is greater than 60 min; in series [17], 34 min. In addition, the IC50 with Plasmodium falciparum [1] amounted to 340 nM; in the series with Plasmodium falciparum [6] it was 284 nM; in the series on Plasmodium falciparum [4], 355 nM; in the series on Plasmodium falciparum [10], 81 nM; in the series with Plasmodium falciparum [7], 262 nM; with Plasmodium falciparum [12], 110 nM. Also, the IC50 with Plasmodium falciparum [13] is 97 nM; with Plasmodium falciparum [5], 132 to 366 nM; in the series on HepG2, 30000 nM; in the series with Plasmodium berghei it was 793 nM. Further, the inhibition result in the series on Plasmodium falciparum [2] is “inactive”.
On to `CCN(CC)CCCC(C)Nc1c2ccc(Cl)cc2nc2ccc(OC)cc12` (configuration not stated) [QUINACRINE], for which the IC50 with Plasmodium falciparum [1] is 29 nM; in the series on Plasmodium falciparum [3] it was 23 nM; with Plasmodium falciparum [4] it was 18 nM; in the series with Plasmodium falciparum [5], 29 nM. For the same compound, in the series with Plasmodium falciparum [2], the inhibition result was “inactive”.
